# Results: ChEMBL document CHEMBL1201862, “PubChem BioAssay data set” (2004)
#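 The compound was tested at five concentrations on cells cultured in 96-well plates, with a 48-hour exposure period. Abbreviation: GI50, concentration required for 50% inhibition of growth.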 Calls of active or inactive are those of the source. No stated cut-off is given here; in the data, active = GI50 up to about 1.1 µM and inactive = higher.
# What was measured:
# Assay in all cases: inhibition of tumour cell growth, NCI panel, 48 h
# 786-0 = system: 786-0
# A549 = system: A549
# CAKI-1 = system: CAKI-1
# DU-145 = system: DU-145
# HCT-15 = system: HCT-15
# HT-29 = system: HT-29
# MCF7 = system: MCF7
# MDA-MB-231 = system: MDA-MB-231
# Malme-3M = system: Malme-3M
# NCI-H226 = system: NCI-H226
# NCI/ADR-RES = system: NCI/ADR-RES
# PC-3 = system: PC-3
# SF-268 = system: SF-268
# SF-539 = system: SF-539
# SN12C = system: SN12C
# SNB-75 = system: SNB-75
# SR = system: SR
# T47D = system: T47D
# U-251 = system: U-251
# UO-31 = system: UO-31
SMILES,GI50 (786-0),GI50 (A549),GI50 (CAKI-1),GI50 (DU-145),GI50 (HCT-15) [µM],GI50 (HT-29),GI50 (MCF7),GI50 (MDA-MB-231),GI50 (Malme-3M),GI50 (NCI-H226),GI50 (NCI/ADR-RES),GI50 (PC-3),GI50 (SF-268),GI50 (SF-539),GI50 (SN12C),GI50 (SNB-75),GI50 (SR),GI50 (T47D),GI50 (U-251),GI50 (UO-31)
Cc1cccc2nc3cccc(C(=O)NCCC[N+](C)(CCCNC(=O)c4cccc5nc6cccc(C)c6nc45)Cc4c([N+](=O)[O-])ncn4C)c3nc12,4.07 µM (inactive),0.189 µM (active),0.659 µM (active),0.881 µM (active),0.82,0.187 µM (active),0.436 µM (active),38.3 µM (inactive),3.05 µM (inactive),0.787 µM (active),38.6 µM (inactive),1.46 µM (inactive),2.43 µM (inactive),0.41 µM (active),0.378 µM (active),233 µM (inactive),12.6 µM (inactive),21.9 µM (inactive),0.377 µM (active),0.726 µM (active)
CCOC(=O)NC(Nc1cccc(F)c1)(C(F)(F)F)C(F)(F)F,> 100 µM (inactive),> 100 µM (inactive),> 100 µM (inactive),> 100 µM (inactive),> 100,> 100 µM (inactive),> 100 µM (inactive),> 100 µM (inactive),> 100 µM (inactive),> 100 µM (inactive),> 100 µM (inactive),> 100 µM (inactive),> 100 µM (inactive),> 100 µM (inactive),> 100 µM (inactive),> 100 µM (inactive),7 µM (inactive),> 100 µM (inactive),> 100 µM (inactive),4.94 µM (inactive)
CCN(CC)CCCn1c(=O)c2ccccc2n2c3c(=O)n(C)c(=O)n(C)c3nc12,2.21 µM (inactive),0.959 µM (active),1.43 µM (inactive),1.57 µM (inactive),5.83,6.56 µM (inactive),4.76 µM (inactive),13.8 µM (inactive),8.99 µM (inactive),2.7 µM (inactive),13.2 µM (inactive),8.39 µM (inactive),5.9 µM (inactive),7.73 µM (inactive),2.85 µM (inactive),5.92 µM (inactive),0.394 µM (active),17.1 µM (inactive),3.03 µM (inactive),4.47 µM (inactive)
